# According to patent US6677309B1, “Anti-cancer drug aldehyde conjugate drugs with enhanced cytotoxicity compounds, compositions and methods” (University Technology Corporation, priority 1997, dated 2004):
# Like-named read-outs stand apart in the source and are kept apart here.
# How the values were obtained:
# [1] = system: MCF-7 cells; experiment: In vitro cytotoxicity, colony formation by crystal violet assay, MCF-7
# Description: (§1) The term IC50 as used herein refers to the concentration of drug which inhibits cell growth by 50%, i.e., 50% of cells are viable at the IC50 concentration relative to a no-drug control.
# (§2) Cells were incubated with drug for 3 h in RPMI (Roswell Park Memorial Institute) 1640 media containing 10% fetal bovine serum and 1% DMSO. Plates, were developed using the crystal violet assay. […] In all cases percent survival was determined by the extent of colony formation six days after drug treatment.
# (§3) All tissue culture materials were obtained from Gibco Life Technologies (Grand Island, N.Y.) unless otherwise stated. MCF-7 breast cancer cells were obtained from American Type Culture Collection (Rockville, Md.). […] Both cell lines were maintained in vitro by serial culture in phenol red-free RPMI Media 1640 supplemented with 10% fetal bovine serum (Gemini Bio-Products, Calbasas, Calif.), L-glutamine (2 mM), HEPES buffer (10 mM), penicillin (100 units/mL), and streptomycin (100 μg/mL). […] Cells were maintained at 37° C. in a humidified atmosphere of 5% CO2 and 95% air.
# (§4) Cells were dissociated with trypsin-EDTA, counted, and suspended in growth media to a concentration of 5×10^3 cells/mL. Cell suspensions were dispensed in 200 μL aliquots into 96-well tissue culture plates. Plates were then incubated for 24 h at 37° C. in a humidified atmosphere of 5% CO2 and 95% air. The media was replaced with 180 μL of growth media prior to addition of the cytotoxic agents.
# (§5) Concentrations were then corrected by measuring the solution absorbance at 480 nm (ε=11,500/mole anthracycline). The solutions were then serially diluted in DMSO to give a series of 100× working concentration solutions. For each concentration, the 100× solution was diluted 1:10 in serum-free RPMI Media 1640. 20 μL of the resulting […] solution was immediately added to the appropriate lane. Additionally, one lane was treated with 20 μL of 10% DMSO in serum-free RPMI (no drug) and one lane replaced with 200 μL of 1.5 M Tris buffer (no cells). The cells were incubated at 37° C. for 3 h. The drug solutions were removed and 200 μL of fresh growth media was added to each well.
# (§6) The extent of colony formation was determined by use of a crystal violet staining assay (Gilles, R. J. et al. (1986), “Determination of cell number in monolayer cultures,” Anal. Biochem. 159:109-113; Reile, H. et al. (1990), “Computerized determination of growth kinetic curves and doubling times from cells in microcultures,” Anal. Biochem. 187:262-267). […] The cells were then stained with 75 μL of 0.1% crystal violet in deionized water for 30 min. […] The plates were blotted dry and 200 μL of 70% ethanol in water was added to each well to solublize the dye. The plates were stored at 4° C. until solubilization was complete (about 4 h). The optical density of each well was measured on an ELISA plate reader at 588 nm. Relative colony sizes were determined by comparison of the drug treated lanes to the control lanes.
# (§7) MCF-7 breast cancer cells were obtained from American Type Culture Collection (Rockville, Md.). MCF-7/ADR adriamycin resistant breast cancer cells were a gift of Dr. William W. Wells (Michigan State University). Both cell lines were maintained in vitro by serial culture in phenol red-free RPMI Media 1640 supplemented with 10% fetal bovine serum (Gemini Bio-Products, Calbasas, Calif.), L-glutamine (2 mM), HEPES buffer ([…]), penicillin (100 units/mL), and streptomycin (100 μg/mL). […] Cells were maintained at 37° C. in a humidified atmosphere of 5% CO2 and 95% air.
# 1640 media containing 10% fetal bovine serum. The resulting 90% media/10% DMSO solutions (v/v) were incubated at 37° C. for 6h.
# [2] = system: PC-3; experiment: Prostate cancer cell cytotoxicity, crystal violet assay, PC-3; format: cell-based, human; settings: Homo sapiens
# Description: (§8) Toxicity to the three prostate cancer cell lines, LNCaP, DU-145, and PC-3 were measured in two different media, RPMI-1640 and DMEM (Dulbecco's Modified Eagle Medium), both supplemented with 10% fetal bovine serum.
# (§9) Cell lines were maintained in vitro in RPMI 1640 media or DMEM, each supplemented with 10% fetal bovine serum, 2 mM L-glutamine, 10 mM HEPES buffer, penicillin (100 units/mL) and streptomycin (100 μg/mL).
# (§10) Cells were dissociated with trypsin/EDTA, counted, and suspended in growth media (RPMI or DMEM) to a concentration of 5.6×10^3 cells/mL. Cell suspensions were dispensed in 180 μL aliquots into 96-well tissue culture plates. […] Each 100× solution was diluted 10× in growth media (RPMI or DMEM), and a 20 μL aliquot of the resulting 10× solution was immediately (<10s) added to-the appropriate lane. Additionally, one lane was treated with 20 μL of 10% DMSO in growth media (no drug) and one lane was treated with 200 μL of 1.5 M Tris buffer (no cells). The cells were incubated with the drugs for 3 h at 37° C. The drug solutions were then removed and replaced with 200 μL of fresh media. The cells were incubated for 4 days (7 days for PC-3 cells in DMEM) at 37° C. in a humidified atmosphere of 5% CO2 and 95% air. Cell survival was determined using a crystal violet assay as described earlier (Fenick, D. J. et al (1997) J. Med. Chem. 40: 2452-2461).
# [3] = system: DU-145; experiment: Prostate cancer cell cytotoxicity, crystal violet assay, DU-145; format: cell-based, human; settings: Homo sapiens
# Description: as §8, §9, §10
# [4] = system: LNCaP; experiment: Prostate cancer cell cytotoxicity, crystal violet assay, LNCaP; format: cell-based, human; settings: Homo sapiens, LNCaP
# Description: as §8, §9, §10
# [5] = system: MCF-7/ADR cells; experiment: In vitro cytotoxicity, colony formation by crystal violet assay, MCF-7/ADR
# Description: as §1, §2, §3, §4, §5, §6, §7
# These were then diluted 10× with autoclaved Millipore water.
# [6] = Hydrolysis in aqueous phosphate buffer, HPLC; format: physicochemical; settings: serum; read-out: estimated half-life
# Description: See Example 16. […] The DMSO was present to increase solubility.
# Second, the kinetics of hydrolysis were measured in pH 6.0 phosphate buffer.
# A 960 μL solution of pH 7.3 phosphate buffer was heated to 37° C. […] No change in the chromatography was observed if pH, 7.3 phosphate buffer was used as the eluent in place of pH 7.4 TEAA buffer.
# [7] = Stability in DMSO and DMSO/water, NMR or HPLC; format: physicochemical; settings: HPLC
# Description: Crystalline dimeric formaldehyde conjugate of daunorubicin (2.8 mg, 2.6 μmol) was dissolved in 500 μL of DMSO-d6 (stored over 3 A molecular sieves) and analyzed by 400 MHz, ^1H NMR. […] Upon addition of 25 μL of D2O to the 500 μL DMSO-d6 sample, the dimeric formaldehyde conjugate of daunorubicin reacted over a 24 h period to form an equilibrium mixture consisting of 67% dimeric formaldehyde conjugate of daunorubicin and 32% of an intermediate. Because of the complexity of the spectrum, a structure could not be assigned to the intermediate; however, the intermediate appeared to have an oxazolidine ring. Upon addition of 3 equiv of hydrochloric acid in 130 μL of deuterium oxide, hydrolysis to daunorubicin-HCl was complete. The hydrochloric acid solution was prepared by the addition of 10 μL of concentrated HCl to 990 μL of D2O. The formaldehyde released from the dimeric formaldehyde conjugate of daunorubicin was detected as its hydrate. The final product was identified as daunorubicin by comparison of the NMR spectrum with that of a sample of daunorubicin plus 3 equiv of HCl. Further, the final product was isolated by removal of all volatile components under vacuum (0.1 Torr), and its ^1H NMR spectrum was identical to that of daunorubicin-HCl.
# Amorphous dimeric formaldehyde conjugate of daunorubicin, when worked up in methylene chloride, was stable in DMSO for at least 4 days. It hydrolyzed with added D2O and hydrochloric acid in a manner similar to that of the crystalline material. When worked up in chloroform, amorphous dimeric formaldehyde conjugate of daunorubicin had less stability in DMSO, presumably due to traces of HCl from the chloroform.
# A 1.3 mg sample of N-acetyl-3′-N,4′-O-methylenedaunorubicin was dissolved in […] of DMSO and analyzed over time by HPLC. […] At this time, […] of water was added to the DMSO/N-acetyl monomeric formaldehyde conjugate of daunorubicin solution, establishing a 50:50 DMSO:water mixture (v/v). In this solution, the N-acetyl-3′-N,4′-O-methylenedaunorubicin remained 91% intact (9% degradation to daunorubicin) over a period of 6 days, based upon the HPLC analysis.
# A pH 6 triethyl ammonium acetate solution containing 13.1 μmol of epidoxorubicin-HCl and 6.6 mmol of […] was allowed to react in the dark at 25° C. for 30 min. The mixture was then extracted with chloroform with vigorous stirring for 20 min. The chloroform solution was dried over sodium sulfate and the chloroform removed by rotary evaporation. The resulting dry solid was redissolved in 1.0 mL of chloroform. To this was added 10 mL of n-hexane. After 2 days, a large amount of precipitate had formed, which was washed with 3×5 mL of n-hexane, followed by 4×1 mL of water.
# The sample was maintained at ambient temperature for 2 h; after this period no change in the spectrum was observed. […] A stock 122 mM solution of HCl in D2O was prepared by adding concentrated hydrochloric acid to D2O. […] Complete hydrolysis occurred upon addition of ca. 2-3 equiv of HCl. A similar experiment was performed using HCl in H2O. […] This solution was incubated at 37° C. for 24 h prior to NMR analysis.
# [8] = relative to the respective parent drug
# [9] = 50:50 DMSO:water (v/v), over 6 days
Compound,"IC50 ([1]; Homo sapiens, MCF7, read-out: IC50 Values, MCF-7) [pM]","times more cytotoxic against the MCF-7 cell line than the parent drug ([1]; relative to daunorubicin and doxorubicin, respectively) [times]","fold more toxic to MCF-7 cells than the parent drug [1, 8] [fold]","IC50 ([2]; PC-3, read-out: IC50 Values, PC-3/DMEM) [pM]","IC50 ([2]; PC-3, read-out: IC50 Values, PC-3/RPMI-1640) [pM]","IC50 ([3]; DU-145, read-out: IC50 Values, DU-145/DMEM) [pM]","IC50 ([3]; DU-145, read-out: IC50 Values, DU-145/RPMI-1640) [pM]","IC50 ([4]; read-out: IC50 Values, LNCaP/DMEM) [pM]","IC50 ([4]; read-out: IC50 Values, LNCaP/RPMI-1640) [pM]","IC50 ([5]; Homo sapiens, NCI/ADR-RES, read-out: IC50 Values, MCF-7-ADR) [pM]","fold higher cytotoxicity against MCF-7/ADR cells relative to the parent drug [5, 8]",half-life [6] [min],"degradation to daunorubicin [7, 9] [%]","fraction remaining intact [7, 9] [%]","degradation in DMSO solution ([7]; DMSO, after 2 h)"
"COc1cccc2c1C(=O)c1c(O)c3c(c(O)c1C2=O)CC(O)(C(=O)CO)CC3OC1CC2C(OCN2CN2CO[C@@H]3C(C)O[C@H](OC4CC(O)(C(=O)CO)Cc5c(O)c6c(c(O)c54)C(=O)c4c(OC)cccc4C6=O)CC32)C(C)O1 (stereo partly drawn) [DOXF, bis(3′-N-(3′-N,4′-O-methylenedoxorubicinyl))methane]",1000,150,150,4500,500,1500,2000,500,500,500,"10,000 fold",< 10,,,
"N-acetyl-3′-N,4′-O-methylenedaunorubicin",,,,,,,,,,,,,9,91,no degradation
